# Source: publication PMC11295118, “Harnessing the Intrinsic Chemical Reactivity of the Mycotoxin Patulin for Immunosensing” (Analytical Chemistry, 2024)
# Structures can show the parent of a compound that is named as a salt.
# System: monoclonal antibodies raised against BSA–Ia
# Assay: Specificity of the monoclonal antibodies by competitive ELISA
# Format: binding, mice
# Conditions: for recognition by the antibodies: competitors tested separately (without derivatization)
# Text: The high affinity of the rabbit antisera for patulin after its transformation into adduct I motivated us to pursue the production of monoclonal antibodies (mAbs), given their high value in industry for the development of rapid commercial assays. To this end, standard hybridoma technology was employed with splenocytes from mice immunized with the bioconjugate BSA–Ia, the immunogen that elicited the best response in rabbits (Supporting Information). From two independent cell fusion experiments, three antibody-producing hybridomas capable of recognizing adduct I were generated. Following affinity purification, the mAbs were characterized by direct and indirect competitive ELISA using the homologous and the heterologous conjugate, i.e., based on hapten Ia or Ib, respectively. As summarized in Table S2, the three antibodies successfully recognized both coating conjugates (OVA–Ia and OVA–Ib), yielding IC50 values for patulin below 7.0 nM. […] In the direct competitive format, even better IC50 values were found with mAbs #13 and #17 when used with the homologous enzyme tracer HRP–Ia (IC50 = 0.7–0.8 nM). […]
# dissolved in 8‐10 mL of 20 mM phosphate buffer, pH 7.4, and filtered through a nitrocellulose membrane (0.45 μm pore diameter). The resulting filtrate was purified by affinity chromatography with a 5 mL HiTrap Protein G HP column, and the antibody‐containing fractions were gathered and the buffer was exchanged to 20 mM phosphate buffer, pH 7.4, using Amicon Ultra 4 10k centrifugal devices. Final antibody concentration was calculated using the absorption at 280 nm and a molar extinction coefficient of 1.4 L g‐1 c m ‐1. The purified antibodies were precipitated with 1 volume of saturated ammonium sulphate for long‐term storage at 4 °C. […]
# Antibody‐coated direct competitive ELISA. […] Following incubation during 10 min at rt, the reaction was stopped by adding 100 µL per well of 1 M H2SO4, and the absorbance was […]
# Following incubation during 10 min at rt, the reaction was stopped by adding 100 µL per well of 1 M H2SO4, and the absorbance was immediately read. […]
Structure (SMILES),recognition by the antibodies,inhibition curves compared with patulin after reacting with 7a (adduct I or derivatized patulin used as competitors)
"[Na][S]c1ccccc1[S][Na] [7a, sodium salt of benzene-1,2-dithiol]",did not recognize,
O=C/C(CC(=O)O)=C1\Sc2ccccc2S[C@H]1CO [adduct I],,overlapped
O=C1C=C2C(=CCOC2O)O1 (stereo not drawn) [patulin],did not recognize,
